Converted amounts (≈) assume the structure as drawn.
Assay: Solubility of Compound (I) in solvent components
Assay type: physicochemical

SMILES: COc1ccc(C(=O)Cc2c(Cl)cncc2Cl)c2c1OC1(CCCC1)O2 [Compound (I), 7-[2-(3,5-dichloro-4-pyridyl)-1-oxoethyl]-4-methoxy-spiro[1,3-benzodioxol-2,1′-cyclopentane]]
- solubility (oil or lipid, in isopropyl myristate): ~10 mg/mL (≈ 25.4 mM)
- solubility (organic solvent or mixture, in benzyl alcohol): ~100 mg/mL (≈ 254 mM)
- solubility (organic solvent or mixture, in propylene carbonate): ~33 mg/mL (≈ 83.7 mM)
- solubility (organic solvent or mixture, in propylene glycol): ~3 mg/mL (≈ 7.61 mM)

Reference: patent US20090012051A1, “EXTERNAL PREPARATION” (KYOWA HAKKO KOGYO CO., LTD., priority 2005, published 2009)
